Test results reported in patent US7534769B2, “Compositions and methods for enhancing delivery of therapeutic agents to cells” (Canji, Inc., priority 1996, dated 2009).
Entries after “also recorded” stand apart in the source; their conditions may differ. Each block holds one compound with its values, some of them ahead of it.

Columns and labels:
bladder epithelium [1] = assay type: in vivo, rat
Protocol: Nine female buffalo rats (Harlan Sprague Dawley) were anesthetized with isoflurane and received a single intravesical administration of a human recombinant adenovirus encoding the lacZ gene (rAd-βgal). […] The administered material was retained in the bladder for 45 minutes. The bladder were then flushed with PBS, and the animals were permitted to recover from the procedure. Two days after administration, rats were sacrificed, bladders were harvested, fixed, and whole organs were stained with an Xgal (5-Bromo-4-chloro-3-indolyl-β-D-galactoside) solution to evaluate reporter gene transfer. Xgal-stained tissues were then paraffin embedded, sectioned, and counter stained with hematoxylin and eosin.
After a 45 minute incubation, the bladders were flushed with PBS, and animals were permitted to recover from anesthesia.

[2] = system: bladder, kidney and liver homogenates; experiment: ACNRB transgene expression by RT-PCR after intravesical administration; assay type: in vivo, mouse
Protocol: After the virus was retained in the bladder for 45 minutes, the animals were permitted to recover and void. […] Following amplification (30 cycles) RT-PCR products were separated on a 10% polyacrylamide gel, stained with ethidium bromide, and photographed. […] Untreated samples and bladder samples without the reverse transcriptase (RT) provided controls for contaminating DNA.
The instilled material was retained in the bladder for approximately 45 minutes, and animals were permitted to recover from the procedure. Mice were sacrificed 1, 2, 3, 4, 5, 6, 7, and 14 days after administration (N=4/time) for analysis. Bladders, livers, and kidneys were harvested and snap frozen in liquid nitrogen for subsequent analysis.
After the virus was retained in the bladder for 45 minutes, the animals were permitted to recover. […] Transgene expression was determined using RT-PCR. Tissues were rinsed in RNAse free water, homogenized, digested in Tri-Reagent (Molecular Research Center), and total cellular RNA extracted. […] RT-PCR was performed in the Perkin Elmer 9600 GeneAmp PCR System. Cycling conditions were 10 min at 65° C., 8 min at 50° C., 5 min at 95° C. 32 cycles of PCR were performed, each cycle consisting of 30 sec at 94° C., 30 sec at 58° C., and 30 sec at 72° C. The 32nd cycle included a 10 min elongation step at 72° C. to ensure full extension of incomplete DNA fragments.

bladder tissue = experiment: Cystitis evaluation of formulations in mice, bladder histopathology; settings: 80 μL intravesical, 7-day interval; 7 mM Big CHAP, 0.05 mM TRITON X-100 or 22% ethanol
Protocol: The formulations were administered intravesically in a volume of 80 μL, and animals were observed over a 7-day interval. After sacrifice, bladders were paraffin-embedded, sectioned, and stained with hematoxylin and eosin for pathologic evaluation.

bladder epithelium [3] = experiment: rAd-βgal gene transfer to bladder epithelium in detergent formulations, Xgal staining score and gross pathology; settings: detergents at their critical micellization concentration
Protocol: rAd-βgal was formulated in different detergents at their critical micellization concentration to evaluate efficiency of gene transfer to the bladder epithelium. Female rats (about 200 g b/w, Harlan Sprague Dawley) were anesthetized with isoflurane and received a single intravesical administration of rAd-βgal (1×10^11 PN/ml) in different detergent formulations (see Table I). Before instillation, bladders were flushed with PBS and then emptied. rAd-βgal was then instilled in a volume of 0.5 ml. The instilled solution was retained in the bladder for 45 minutes. The bladders were then flushed with PBS, and the animals were permitted to recover from the procedure. 48 hours after administration, the rats were sacrificed, the bladders harvested, and fixed in formalin. After fixation, the bladders were opened longitudinally so that the urothelium was exposed to the chromogen (Xgal), that is converted to a blue color, if reporter gene (β-galactosidase) expression is present. The luminal epithelial surface of the whole bladder was photographed an blue staining scored: + (minimal staining), ++ (moderate staining), +++ intense staining covering the whole bladder epithelial surface.
Briefly, in anaesthetized female rats rAd-βgal (1×10^11 PN/ml) was administered into the bladder via an intravesical catheter. rAd-βgal was formulated in different concentrations of Big CHAP (CALBIOCHEM®). A volume of 0.5 ml was injected and remained instilled in the bladder for 45 minutes. The animals were sacrificed 48 hours later, the bladder fixed in 4% formalin/glutaraldehyde, opened longitudinally, and the β-galactosidase enzyme activity measured using Xgal substrate. The intensity of blue staining correlates with the βgal-transgene expression.
Effects of higher recombinant adenovirus concentrations were also tested. Briefly, in anaesthetized female rats different concentrations of rAd-βgal, formulated in 7 mM Big CHAP (CALBIOCHEM®) were administered into the bladder via an intravesical catheter. The animals were sacrificed 48 hours later, the bladder fixed in 4% formalin/glutaraldehyde, opened longitudinally, and Xgal stained.

[4] = Solubility and dissolution behaviour; assay type: physicochemical
bladder [5] = experiment: Gene transfer activity of water-soluble Syn3 analogs in vivo, whole organ Xgal staining; set-up: species or system rat; settings: summary, Concentration 1 mg/ml
Protocol: A concentration of 1 mg/ml was chosen for initial testing of both compounds.
The solution of A-TMA was prepared by dissoluting 10 mg of A-TMA into 10 ml Dulbecco's PBS. Glycerol was added to provide a final concentration of 10 mg/ml. All solutions were sterile filtered prior to use (0.2 μm Acrodisc syring filter). The virus (BGCG 70AAB) was diluted 1:10 into either this A-TMA solution, or into Dulbecco's PBS-glycerol prior to administration.
Ten mg of A-HCl was dissoluted into this buffer and sterile filtered prior to use (0.2 μm Acrodisc suring filter). The virus (BGCG 70AAB) was diluted 1:10 into this solution prior to administration. For comparison, the virus diluted into this buffer without A-HCl was also tested.
Female HSD rats were anesthetized using isofluorane. The rats were transuretherally catheterized into the bladder using PE50 tubing lubricated with K-Y jelly. A tie-off was installed on the external urethra to prevent back leakage. Urine, if any, was removed and the bladder was flushed with 0.5 ml PBS and emptied. rAd was diluted to the desired concentration (1:10) and instilled for 45 minutes. The dosing material was removed, noting the return volume. The bladder was flushed with 0.5 ml PBS and emptied. The tie-off and catheter were removed, and the animals were allowed to recover in cages.
After 48 hours, the animals were sacrificed and their bladders inflation fixed with 0.5 ml fixative for 1 hour. The bladders were then rinsed overnight and whole organ Xgal staining was conducted.

[6] = Stability of Syn3 in solution; assay type: physicochemical
Protocol: However, if left at room temperature at this high concentration (100 mg/ml), it will solidify within 24 hours.

bladder [7] = experiment: Gene transfer activity of Syn3 in Big CHAP or Tween-80, β-galactosidase expression in bladder; assay type: in vivo, rat; settings: for gene transfer activity / β-gal expression: 0.5 mg/ml in 7.8 mM Big CHAP
Protocol: (§1) Following removal of virus and flushing of the bladder, the animals were allowed to recover. After 48 hours the animals were sacrificed, their bladders fixed, and stained for β-gal expression. Following photographic recording, bladders were embedded in paraffin for sectioning and histological examination.

bladder urothelium = experiment: Histological examination of Syn3 treated bladders (infiltrates); assay type: in vivo, rat; settings: for inflammation / infiltration at lower concentration of Syn3: 0.25 mg/ml compared with 0.5 mg/ml, decreasing concentrations in Big CHAP or Tween 80
Protocol: as §1
Bladders from animals treated with Syn3-rAd (β-Gal) were prepared for histological examination to determine the levels of viral infection, as well as the degree of viral penetration into the bladder urothelium.

Compound: CCO [ethanol]
- β-galactosidase expression of the transitional bladder epithelium (histologic evaluation) (bladder epithelium [1]; ethanol added to the adenovirus formulation): increased β-galactosidase expression
- β-galactosidase expression in the luminal epithelial surface (bladder epithelium [1]; rAd-βgal 1.7×10^11 PN/mL diluted in 30% (v/v) ethanol, intravesical 45 min, 2 days after administration): greatly enhanced
- ACNRB expression in bladder (RT-PCR) ([2]; ACNRB 4×10^10 PN/mL in 22% (v/v) ethanol or 3 mM Big CHAP versus VPBS, 48 hours): enhanced expression
- ACNRB expression in bladder (RT-PCR) ([2]; ACNRB in 30% (v/v) ethanol compared to VPBS, 2 days): Increased ACNRB expression
- macrophage infiltration into the bladder tissue / cystitis (bladder tissue): significant cystitis

Compound: Triton X-100 [reference compound]
- macrophage infiltration into the bladder tissue / cystitis (bladder tissue): slight to mild
- gene transfer to the bladder epithelium (Table I) (bladder epithelium [3]): enhanced gene transfer dramatically

- behaviour on dissolution in water ([4]; 1 mg/ml in water): appeared to form vesicles
- behaviour on dissolution in water ([4]; 10 mg/ml in water): formed a gel
- amount of Syn3 that dissolutes ([4]; into 15 mM Big CHAP): Up to 5 mg/ml
- time to completely dissolute ([4]; into 10% Tween-80): several hours
- period over which gene transfer activity is retained ([6]; 0.25 mg/ml or 0.5 mg/ml in Big CHAP, room temperature): at least 30 days
- period of stability ([6]; 1 mg/ml in 0.1% Tween-80, longest period tested): at least 30 days
- period of stability ([6]; 100 mg/ml in 10% Tween-80, 4° C.): at least one week
- time to solidify ([6]; 100 mg/ml in 10% Tween-80, room temperature): ≤ 24 h
- stability (in words) ([6]; dissoluted into Big CHAP detergent): very stable
- inflammation / infiltration at lower concentration of Syn3 (bladder urothelium): proportionally lower infiltration
- inflammation / infiltration at lower concentration of Syn3 (bladder urothelium; listed as I3A): less inflammation
Compound: CC(CCC(=O)NCCCN(CCCNC(=O)C(O)C(O)C(OC1OC(CO)C(O)C(O)C1O)C(O)CO)C(=O)CCC(C)C1CCC2C3C(O)CC4CC(O)CCC4(C)C3CC(O)C12C)C1CCC2C3C(O)CC4CC(O)CCC4(C)C3CC(O)C12C (stereo not drawn) [Syn3]
- dissolution in Tween 80 ([4]; 1 mg/ml in 0.1% Tween 80): clear solution; also recorded: readily solubilized
- gene transfer activity (bladder [5]): ++++
- gene transfer activity (bladder [7]; 0.25 mg/ml in 3.9 mM Big CHAP): Very high levels of gene transfer
- gene transfer activity (bladder [7]; 0.25 mg/ml in 3.9 mM Big CHAP, listed as I3A): high levels of gene transfer activity
- gene transfer activity / β-gal expression (bladder [7]): greatly enhance gene transfer and β-gal expression; also recorded: very high levels of gene transfer activity; also recorded: highest levels of β-galactosidase expression; also recorded: extremely high
- gene transfer activity / β-gal expression (bladder [7]; listed as I3A): High levels of gene transfer
- gene transfer activity (bladder [7]; 0.5 mg/ml in 0.05% Tween-80): more regions lacking β-galactosidase expression; also recorded: slightly reduced
- gene transfer activity (bladder [7]; 1 mg/ml in 0.1% Tween 80): found to enhance gene transfer; also recorded: can enhance gene transfer; also recorded: very high levels of gene transfer; also recorded: consistently high levels of gene transfer; also recorded: effective in enhancing gene transfer; also recorded: Approximately equal levels of gene transfer
- gene transfer activity (bladder [7]; 1 mg/ml in 0.1% Tween 80, listed as I3A): very high levels of gene transfer; also recorded: High levels of β-galactosidase activity
- gene transfer (bladder [7]; 1 mg/ml in 0.4% Tween-80): almost no gene transfer
- gene transfer, 0.5 mg/ml in 7.8 mM Big CHAP compared with 1 mg/ml in 0.1% Tween-80 (bladder [7]; rat, in vivo): approximately equal levels of gene transfer enhancement; also recorded: comparable
- recruitment of infiltrates to the bladder (bladder urothelium; 0.5 mg/ml in 7.8 mM Big CHAP with rAd): massive recruitment of infiltrates to the bladder
- infiltration (bladder urothelium; Syn3 administered alone (no virus)): a significant amount of infiltration; also recorded: significant induction of infiltrates
- β-Gal expression on reducing the concentration of Syn3 (histology) (bladder urothelium; in either detergent): concomitant reduction in β-Gal expression
